The term EC50 denotes the concentration needed to bring the measured effect to its halfway point.

Read-outs that look alike come from different tables or passages of the source.

Here are results for 33 molecules from patent publication US11702404B2, “GLP-1R modulating compounds” (priority 2019, dated 2023).

The target of one data set is GLP-1R (Homo sapiens, UniProt P43220). As to the kind of experiment: GLP-1R activation: cAMP increase in CHO cells stably expressing GLP-1R. It counts as cell-based.
Data set [1] is described as follows: Microsomal stability, human liver microsomes (predicted hepatic clearance). The settings on record: predicted from in vitro microsomal stability data.
Where [2] appears, read: cAMP increase, CHO cells stably expressing GLP-1R, 10 point dose response, 30 minutes incubation, read-out: EC50.

Sequence of GLP-1R (P43220 24-463): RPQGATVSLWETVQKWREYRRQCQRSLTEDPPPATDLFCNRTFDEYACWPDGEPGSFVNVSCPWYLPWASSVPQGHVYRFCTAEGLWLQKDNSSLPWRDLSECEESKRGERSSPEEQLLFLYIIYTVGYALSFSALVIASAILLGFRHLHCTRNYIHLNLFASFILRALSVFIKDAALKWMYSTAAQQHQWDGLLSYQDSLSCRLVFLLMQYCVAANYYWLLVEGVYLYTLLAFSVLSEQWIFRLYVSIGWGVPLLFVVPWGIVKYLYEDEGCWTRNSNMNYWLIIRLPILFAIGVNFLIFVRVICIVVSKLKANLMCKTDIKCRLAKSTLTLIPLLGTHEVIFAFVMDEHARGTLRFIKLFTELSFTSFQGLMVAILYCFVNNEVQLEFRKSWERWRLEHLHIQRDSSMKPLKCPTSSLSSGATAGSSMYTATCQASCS

`N#Cc1ccc(COc2cccc(-c3cc(F)c(Cc4nc5ccc(C(=O)O)cc5n4CCOCC(F)(F)F)cc3F)n2)c(F)c1` [Example 827]: the EC50 on GLP-1R (setting [2]) amounted to 1.97 nM. Besides, the “Predicted Hepatic Clearance (Pred. Cl.)” value in data set [1] is 7.17 mL/min/kg.
For `N#Cc1ccc(COc2cccc(-c3cc(F)c(Cc4nc5ccc(C(=O)O)cc5n4CCOCC(F)F)cc3F)n2)c(F)c1` [Example 828] the same measures were 3.5 nM and 8.5 mL/min/kg.
For `O=C(O)c1ccc2nc(Cc3ccc(-c4cccc(OCc5ccc(C(F)F)cc5F)n4)cc3F)n(C[C@@H]3CCO3)c2c1` [Example 829] the same measures were 0.18 nM and 1.83 mL/min/kg.
For `N#Cc1ccc(COc2cccc(-c3cc(F)c(Cc4nc5ccc(C(=O)O)cc5n4CCOc4ccccc4)cc3F)n2)c(F)c1` [Example 830] the same measures were 448 nM and 2.5 mL/min/kg.
For `N#Cc1ccc(COc2cccc(-c3cc(F)c(Cc4nc5c(F)cc(C(=O)O)cc5n4C[C@@H]4CCCO4)cc3F)n2)c(F)c1` [Example 831], the EC50 at GLP-1R (setting [2]) is 0.24 nM. The “Predicted Hepatic Clearance (Pred. Cl.)” value in data set [1] is 2.83 mL/min/kg.
With `Cc1csc(NCCn2c(Cc3cc(F)c(-c4ccnc(OCc5ccc(C#N)cc5F)n4)cc3F)nc3ccc(C(=O)O)cc32)n1` [Example 832], at GLP-1R (read-out: EC50), the 50% effective concentration (EC50) is 2330 nM. The “Predicted Hepatic Clearance (Pred. Cl.)” value in data set [1] is 14.3 mL/min/kg.
For the molecule `CC(C1CCCO1)n1c(Cc2cc(F)c(-c3cccc(OCc4ccc(C#N)cc4F)n3)cc2F)nc2ccc(C(=O)O)cc21` (stereo not drawn) [Example 833], at GLP-1R (setting [2]), the EC50 was found to be 6.41 nM. In data set [1], the “Predicted Hepatic Clearance (Pred. Cl.)” value is 9.83 mL/min/kg.
For `N#Cc1ccc(COc2cccc(-c3ccc(Cc4nc5ccc(C(=O)O)cc5n4C[C@@H]4CCCO4)cc3F)n2)c(F)c1` [Example 834], in that order: 0.69 nM and 6.33 mL/min/kg.
`N#Cc1ccc(COc2cccc(-c3cc(F)c(Cc4nc5ccc(C(=O)O)cc5n4CCNc4ccccn4)cc3F)n2)c(F)c1` [Example 835]: on GLP-1R (read-out: EC50), the 50% effective concentration (EC50) was found to be 515 nM. The “Predicted Hepatic Clearance (Pred. Cl.)” value in data set [1] is 11.2 mL/min/kg.
On to `COCCn1c(Cc2cc(F)c(-c3cccc(OCc4ccc(C#N)cc4F)n3)cc2F)nc2cc(OC)c(C(=O)O)cc21` [Example 836], for which the EC50 on GLP-1R (setting [2]) stood at 9.29 nM. Moreover, the “Predicted Hepatic Clearance (Pred. Cl.)” value in data set [1] is 1.83 mL/min/kg.
With `COCCn1c(Cc2cc(F)c(-c3cccc(OCc4ccc(C#N)cc4F)n3)cc2F)nc2cc(Cl)c(C(=O)O)cc21` [Example 837], at GLP-1R (setting [2]), the EC50 turned out to be 29.3 nM. Moreover, the “Predicted Hepatic Clearance (Pred. Cl.)” value in data set [1] was 1.83 mL/min/kg.
For `N#Cc1ccc(COc2cccc(-c3cc(F)c(Cc4nc5ccc(C(=O)O)cc5n4C4CCCOC4)cc3F)n2)c(F)c1` (stereo not drawn) [Example 838], in that order: 3.6 nM and 4.33 mL/min/kg.
For `CC1(Cn2c(Cc3cc(F)c(-c4cccc(OCc5ccc(C#N)cc5F)n4)cc3F)nc3ccc(C(=O)O)cc32)CCOCC1` [Example 839], in that order: 7.04 nM and 5.83 mL/min/kg.
In the case of `N#Cc1ccc(COc2cccc(-c3cc(F)c(Cc4nc5ccc(C(=O)O)cc5n4C[C@@H]4CCCO4)cc3F)n2)c(F)c1` [Example 840], the half-maximal effective concentration (EC50) on GLP-1R (setting [2]) was determined as 1.11 nM. The “Predicted Hepatic Clearance (Pred. Cl.)” value in data set [1] was 4.83 mL/min/kg.
For `COCCn1c(Cc2ccc(-c3cccc(OCc4ccc(C#CC(C)(C)O)cc4F)n3)cc2F)nc2ccc(C(=O)O)cc21` [Example 841], in that order: 164 nM and 6.17 mL/min/kg.
For `COCCn1c(Cc2ccc(-c3cccc(OCc4ccc(C#Cc5cncnc5)cc4F)n3)cc2F)nc2ccc(C(=O)O)cc21` [Example 842, 2-(2-fluoro-4-(6-((2-fluoro-4-(pyrimidin-5-ylethynyl)benzyl)oxy)pyridin-2-yl)benzyl)-1-(2-methoxyethyl)-1H-benzo[d]imidazole-6-carboxylic acid] the same measures were 4.73 nM and 1.83 mL/min/kg.
For `COCCn1c(Cc2ccc(-c3cccc(OCc4ccc(C#CC5CC5)cc4F)n3)cc2F)nc2ccc(C(=O)O)cc21` [Example 843] the same measures were 17.2 nM and 2.67 mL/min/kg.
Take `COCCn1c(Cc2cc(F)c(-c3cccc(OCc4ccc(C#N)cc4COC)n3)cc2F)nc2ccc(C(=O)O)cc21` [Example 844, 2-(4-(6-((4-cyano-2-(methoxymethyl)benzyl)oxy)pyridin-2-yl)-2,5-difluorobenzyl)-1-(2-methoxyethyl)-1H-benzo[d]imidazole-6-carboxylic acid]: the 50% effective concentration (EC50) on GLP-1R (setting [2]) amounted to 13 nM. For the same molecule, in data set [1], the “Predicted Hepatic Clearance (Pred. Cl.)” value is 2.5 mL/min/kg.
Take `COCCn1c(Cc2ccc(-c3cccc(OCc4ccc(COC)cc4F)n3)cc2F)nc2ccc(C(=O)O)cc21` [Example 845, 2-(2-fluoro-4-(6-((2-fluoro-4-(methoxymethyl)benzyl)oxy)pyridin-2-yl)benzyl)-1-(2-methoxyethyl)-1H-benzo[d]imidazole-6-carboxylic acid]: the EC50 at GLP-1R (EC50 (nM)) was 18 nM. For the same molecule, the “Predicted Hepatic Clearance (Pred. Cl.)” value in data set [1] was 12.3 mL/min/kg.
On to `CCOC(=O)c1ccc2nc(Cc3cc(F)c(-c4cccc(OCc5ccc(C#N)cc5F)n4)cc3F)n(CCOC)c2c1` [Example 847, Ethyl 2-(4-(6-((4-cyano-2-fluorobenzyl)oxy)pyridin-2-yl)-2,5-difluorobenzyl)-1-(2-methoxyethyl)-1H-benzo[d]imidazole-6-carboxylate], for which, on GLP-1R (setting [2]), the concentration for a half-maximal effect (EC50) was found to be 537 nM. For the same molecule, in data set [1], the “Predicted Hepatic Clearance (Pred. Cl.)” value was 6 mL/min/kg.
`CC(=O)N1C[C@H](O)C[C@@H]1Cn1c(Cc2cc(F)c(-c3cccc(OCc4ccc(C#N)cc4F)n3)cc2F)nc2ccc(C(=O)O)cc21` [Example 848]: on GLP-1R (setting [2]), the 50% effective concentration (EC50) was found to be 4.08 nM. Besides, the “Predicted Hepatic Clearance (Pred. Cl.)” value in data set [1] was 2.83 mL/min/kg.
Take `CC(=O)N1CC2CC1(Cn1c(Cc3cc(F)c(-c4cccc(OCc5ccc(C#N)cc5F)n4)cc3F)nc3ccc(C(=O)O)cc31)C2` [Example 849, 1-((2-acetyl-2-azabicyclo[2.1.1]hexan-1-yl)methyl)-2-(4-(6-((4-cyano-2-fluorobenzyl)oxy)pyridin-2-yl)-2,5-difluorobenzyl)-1H-benzo[d]imidazole-6-carboxylic acid]: at GLP-1R (read-out: EC50), the EC50 stood at 14.2 nM. The “Predicted Hepatic Clearance (Pred. Cl.)” value in data set [1] is 5.33 mL/min/kg.
On to `COc1cc(C#N)ncc1COc1cccc(-c2cc(F)c(Cc3nc4ccc(C(=O)O)cc4n3C[C@@H]3CCO3)cc2F)n1` [Example 850, (S)-2-(4-(6-((6-Cyano-4-methoxypyridin-3-yl)methoxy)pyridin-2-yl)-2,5-difluorobenzyl)-1-(oxetan-2-ylmethyl)-1H-benzo[d]imidazole-6-carboxylic acid], for which the EC50 on GLP-1R (setting [2]) turned out to be 0.23 nM. Besides, in data set [1], the “Predicted Hepatic Clearance (Pred. Cl.)” value was 3.33 mL/min/kg.
For `O=C(O)c1ccc2nc(Cc3cc(F)c(-c4cccc(OCc5cnc(Cl)cc5F)n4)cc3F)n(C[C@@H]3CCO3)c2c1` [Example 851] the same measures were 0.25 nM and 2.5 mL/min/kg.
For `N#Cc1ccc(COc2ccc(F)c(-c3cc(F)c(Cc4nc5c(F)cc(C(=O)O)cc5n4C[C@@H]4CCO4)cc3F)n2)cn1` [Example 852, (S)-2-(4-(6-((6-cyanopyridin-3-yl)methoxy)-3-fluoropyridin-2-yl)-2,5-difluorobenzyl)-4-fluoro-1-(oxetan-2-ylmethyl)-1H-benzo[d]imidazole-6-carboxylic acid], in that order: 0.24 nM and 4.5 mL/min/kg.
For `COc1cc(Cl)ncc1COc1cccc(-c2cc(F)c(Cc3nc4ccc(C(=O)O)cc4n3C[C@@H]3CCO3)cc2F)n1` [Example 853], in that order: 0.15 nM and 9 mL/min/kg.
In the case of `NC(=O)c1cc(F)c(COc2cccc(-c3cc(F)c(Cc4nc5ccc(C(=O)O)cc5n4C[C@@H]4CCO4)cc3F)n2)cn1` [Example 854, (S)-2-(4-(6-((6-carbamoyl-4-fluoropyridin-3-yl)methoxy)pyridin-2-yl)-2,5-difluorobenzyl)-1-(oxetan-2-ylmethyl)-1H-benzo[d]imidazole-6-carboxylic acid], on GLP-1R (setting [2]), the EC50 was found to be 0.55 nM. Further, the “Predicted Hepatic Clearance (Pred. Cl.)” value in data set [1] was 2.33 mL/min/kg.
For `COCCn1c(Cc2cnc(-c3cccc(OCc4ccc(C#N)cc4F)n3)c(F)c2)nc2ccc(C(=O)O)cc21` [Example 855], in that order: 12.6 nM and 5.5 mL/min/kg.
For `NC(=O)c1ccc(COc2cccc(-c3cc(F)c(Cc4nc5ccc(C(=O)O)cc5n4C[C@@H]4CCO4)cc3F)n2)c(OC(F)F)n1` [Example 857, (S)-2-(4-(6-((6-carbamoyl-2-(difluoromethoxy)pyridin-3-yl)methoxy)pyridin-2-yl)-2,5-difluorobenzyl)-1-(oxetan-2-ylmethyl)-1H-benzo[d]imidazole-6-carboxylic acid], in that order: 0.35 nM and 3.17 mL/min/kg.
For `N#Cc1ccc(COc2cccc(-c3cc(F)c(Cc4nc5ccc(C(=O)O)cc5n4C[C@@H]4CCO4)cc3F)n2)c(OC(F)F)n1` [Example 858, (S)-2-(4-(6-((6-cyano-2-(difluoromethoxy)pyridin-3-yl)methoxy)pyridin-2-yl)-2,5-difluorobenzyl)-1-(oxetan-2-ylmethyl)-1H-benzo[d]imidazole-6-carboxylic acid] the same measures were 2.27 nM and 8.83 mL/min/kg.
Consider `COCCn1c(Cc2cc(F)c(-c3cccc(OCc4ccc(C#N)c(F)c4F)n3)cc2F)nc2ccc(C(=O)O)cc21` [Example 859], for which, on GLP-1R (setting [2]), the EC50 was 11.6 nM. Further, the “Predicted Hepatic Clearance (Pred. Cl.)” value in data set [1] is 1.83 mL/min/kg.
For `COCCn1c(Cc2cc(F)c(-c3cccc(OCc4ccc(C(F)F)nc4)n3)cc2F)nc2ccc(C(=O)O)cc21` [Example 860] the same measures were 22.6 nM and 1.83 mL/min/kg.
`COCCn1c(Cc2cc(F)c(-c3cccc(OCc4ccc(C(F)(F)F)nc4)n3)cc2F)nc2ccc(C(=O)O)cc21` [Example 861]: on GLP-1R (setting [2]), the EC50 is 16.5 nM. The “Predicted Hepatic Clearance (Pred. Cl.)” value in data set [1] is 1.83 mL/min/kg.
